What was measured:
[1] = xn = mol fraction of the nth substance listed; conditions: 298.15 K, 101 kPa, Liquid
[2] = excess molar enthalpy (molar enthalpy of mixing); xn = mol fraction of the nth substance listed; conditions: 298.15 K, 101 kPa, Liquid

BrCCCCCBr [1,5-dibromopentane] + CCCC(=O)OC
Conditions | excess molar enthalpy [kcal/mol] | mass density [kg/m3]
[1], x2 = 0.0754 | – | 1642.8
[1], x2 = 0.1463 | – | 1593.12
[1], x2 = 0.2087 | – | 1548.48
[1], x2 = 0.2699 | – | 1503.86
[1], x2 = 0.3456 | – | 1447.37
[1], x2 = 0.454 | – | 1363.99
[1], x2 = 0.573 | – | 1268.9
[1], x2 = 0.6279 | – | 1223.66
[1], x2 = 0.6902 | – | 1171.2
[1], x2 = 0.7398 | – | 1128.65
[1], x2 = 0.7971 | – | 1078.54
[1], x2 = 0.8961 | – | 989.47
[1], x2 = 0.9526 | – | 937.22
[2], x2 = 0.0788 | 0.015 | –
[2], x2 = 0.1742 | 0.0254 | –
[2], x2 = 0.2762 | 0.0325 | –
[2], x2 = 0.374 | 0.0341 | –
[2], x2 = 0.461 | 0.0309 | –
[2], x2 = 0.5359 | 0.0249 | –
[2], x2 = 0.5693 | 0.0214 | –
[2], x2 = 0.6313 | 0.0152 | –
[2], x2 = 0.7089 | 0.0093 | –
[2], x2 = 0.7917 | 0.00514 | –
[2], x2 = 0.8725 | 0.00258 | –
[2], x2 = 0.946 | 0.00131 | –

BrCCCCCBr [1,5-dibromopentane] + CCCCC(=O)OC
Conditions | excess molar enthalpy [kcal/mol] | mass density [kg/m3]
[1], x2 = 0.0687 | – | 1640.97
[1], x2 = 0.1285 | – | 1593.96
[1], x2 = 0.1833 | – | 1550.6
[1], x2 = 0.2445 | – | 1501.98
[1], x2 = 0.3066 | – | 1452.48
[1], x2 = 0.4193 | – | 1362.14
[1], x2 = 0.4804 | – | 1312.78
[1], x2 = 0.5408 | – | 1263.86
[1], x2 = 0.601 | – | 1214.87
[1], x2 = 0.6553 | – | 1170.47
[1], x2 = 0.7137 | – | 1122.58
[1], x2 = 0.7698 | – | 1076.41
[1], x2 = 0.822 | – | 1033.27
[1], x2 = 0.8841 | – | 981.75
[2], x2 = 0.0709 | 0.011 | –
[2], x2 = 0.1603 | 0.0179 | –
[2], x2 = 0.2511 | 0.0203 | –
[2], x2 = 0.3436 | 0.0192 | –
[2], x2 = 0.4221 | 0.0158 | –
[2], x2 = 0.4895 | 0.0112 | –
[2], x2 = 0.5345 | 0.00609 | –
[2], x2 = 0.5389 | 0.00564 | –
[2], x2 = 0.5838 | 0.00184 | –
[2], x2 = 0.606 | -0.00203 | –
[2], x2 = 0.6821 | -0.00554 | –
[2], x2 = 0.7721 | -0.00777 | –
[2], x2 = 0.8617 | -0.00657 | –
[2], x2 = 0.943 | -0.000574 | –

BrCCCCCBr [1,5-dibromopentane] + COC(C)=O
Conditions | excess molar enthalpy [kcal/mol] | mass density [kg/m3]
[1], x2 = 0.0956 | – | 1647.08
[1], x2 = 0.1844 | – | 1601.35
[1], x2 = 0.2647 | – | 1557.01
[1], x2 = 0.3394 | – | 1512.51
[1], x2 = 0.4752 | – | 1423.41
[1], x2 = 0.5958 | – | 1333.86
[1], x2 = 0.6582 | – | 1282.77
[1], x2 = 0.7059 | – | 1241.33
[1], x2 = 0.7548 | – | 1196.56
[1], x2 = 0.8019 | – | 1150.87
[1], x2 = 0.8486 | – | 1102.92
[1], x2 = 0.8874 | – | 1060.93
[1], x2 = 0.9243 | – | 1019.18
[1], x2 = 0.9638 | – | 972.17
[2], x2 = 0.1045 | 0.0536 | –
[2], x2 = 0.2048 | 0.0886 | –
[2], x2 = 0.2959 | 0.115 | –
[2], x2 = 0.3795 | 0.13 | –
[2], x2 = 0.454 | 0.137 | –
[2], x2 = 0.5171 | 0.137 | –
[2], x2 = 0.5731 | 0.133 | –
[2], x2 = 0.622 | 0.127 | –
[2], x2 = 0.685 | 0.116 | –
[2], x2 = 0.7322 | 0.103 | –
[2], x2 = 0.7812 | 0.0893 | –
[2], x2 = 0.8296 | 0.0734 | –
[2], x2 = 0.874 | 0.0585 | –
[2], x2 = 0.9245 | 0.0386 | –
[2], x2 = 0.9655 | 0.0173 | –

BrCCCCCBr [1,5-dibromopentane] + COC=O
Conditions | excess molar enthalpy [kcal/mol] | mass density [kg/m3]
[1], x2 = 0.1109 | – | 1653.22
[1], x2 = 0.2235 | – | 1607
[1], x2 = 0.3094 | – | 1567.09
[1], x2 = 0.3956 | – | 1522.56
[1], x2 = 0.4606 | – | 1485.39
[1], x2 = 0.5307 | – | 1441.42
[1], x2 = 0.5985 | – | 1394.16
[1], x2 = 0.6548 | – | 1350.94
[1], x2 = 0.7035 | – | 1310.4
[1], x2 = 0.753 | – | 1265.54
[1], x2 = 0.7889 | – | 1230.37
[1], x2 = 0.8347 | – | 1181.99
[1], x2 = 0.9065 | – | 1097.57
[1], x2 = 0.9653 | – | 1017.86
[1], x2 = 0.9733 | – | 1006.52
[2], x2 = 0.1086 | 0.101 | –
[2], x2 = 0.2259 | 0.174 | –
[2], x2 = 0.336 | 0.227 | –
[2], x2 = 0.4363 | 0.255 | –
[2], x2 = 0.5163 | 0.265 | –
[2], x2 = 0.5848 | 0.264 | –
[2], x2 = 0.64 | 0.254 | –
[2], x2 = 0.6892 | 0.241 | –
[2], x2 = 0.7311 | 0.225 | –
[2], x2 = 0.7667 | 0.207 | –
[2], x2 = 0.8146 | 0.18 | –
[2], x2 = 0.8709 | 0.14 | –
[2], x2 = 0.9225 | 0.0935 | –
[2], x2 = 0.9675 | 0.046 | –

BrCCCCCCBr [1,6-dibromohexane] + CCC(=O)OC
Conditions | excess molar enthalpy [kcal/mol] | mass density [kg/m3]
[1], x2 = 0.0903 | – | 1557.49
[1], x2 = 0.1731 | – | 1517.27
[1], x2 = 0.254 | – | 1475.55
[1], x2 = 0.3276 | – | 1435.11
[1], x2 = 0.3987 | – | 1393.7
[1], x2 = 0.4603 | – | 1355.72
[1], x2 = 0.5254 | – | 1313.37
[1], x2 = 0.5807 | – | 1275.39
[1], x2 = 0.6388 | – | 1233.34
[1], x2 = 0.695 | – | 1190.53
[1], x2 = 0.7429 | – | 1152.05
[1], x2 = 0.7914 | – | 1111.32
[1], x2 = 0.838 | – | 1070.17
[1], x2 = 0.8789 | – | 1032.36
[1], x2 = 0.9195 | – | 993.3
[1], x2 = 0.9621 | – | 950.1
[2], x2 = 0.0951 | 0.0356 | –
[2], x2 = 0.1915 | 0.0572 | –
[2], x2 = 0.2814 | 0.0727 | –
[2], x2 = 0.3659 | 0.0818 | –
[2], x2 = 0.4423 | 0.0858 | –
[2], x2 = 0.5073 | 0.0845 | –
[2], x2 = 0.5644 | 0.0809 | –
[2], x2 = 0.6136 | 0.076 | –
[2], x2 = 0.6648 | 0.067 | –
[2], x2 = 0.7136 | 0.0588 | –
[2], x2 = 0.7663 | 0.0488 | –
[2], x2 = 0.817 | 0.0397 | –
[2], x2 = 0.8647 | 0.0308 | –
[2], x2 = 0.9137 | 0.0207 | –
[2], x2 = 0.9606 | 0.0103 | –
